Results from patent US8518997B2, “4-(phenoxyalkyl)thio)-phenoxyacetic acids and analogs” (Janssen Pharmaceutica N.V., priority 2003, dated 2013).
Where “and” joins values, the source holds several entries; their conditions need not be identical. Identical values can stand only once.

Target: T1, PPAR delta (Homo sapiens, UniProt Q03181)
T1 sequence (Q03181 171-441 limits assumed): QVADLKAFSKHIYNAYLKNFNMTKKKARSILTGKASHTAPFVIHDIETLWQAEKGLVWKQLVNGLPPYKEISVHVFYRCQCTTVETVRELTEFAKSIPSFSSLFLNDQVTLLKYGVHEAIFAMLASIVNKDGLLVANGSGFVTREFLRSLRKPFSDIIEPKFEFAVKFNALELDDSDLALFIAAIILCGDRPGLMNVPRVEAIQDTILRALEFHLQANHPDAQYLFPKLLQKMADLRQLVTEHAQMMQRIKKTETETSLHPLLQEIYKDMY
Assay: Transfection assay for PPAR receptors (PPAR-Gal4 / Gal4-Luciferase reporter in HEK293 cells)
Assay type: cell-based
Conditions: HEK293 cells co-transfected with PPAR-Gal4 (δ) receptor and Gal4-Luciferase reporter, 24 hours; multiple EC50's = multiple measurements; Table 2
Protocol: Transfection Assay Method for PPAR Receptors
HEK293 cells were grown in DMEM/F-12 Media supplemented with 10% FBS and glutamine (GIBCOBRL). The cells were co-transfected with DNA for PPAR-Gal4 (PPARα, γ or δ) receptor and Gal4-Luciferase Reporter using the DMRIE-C Reagent. On the following day, the medium was replaced with 5% Charcoal treated FBS growth medium. After six hours, cells were trypsinized and seeded at a density of 50,000 cell/well into 96 well plates and incubated overnight at 37° C. in a 5% CO2 incubator. Cells were then treated with test compounds or vehicle and incubated for 24 hours at 37° C. in a 5% CO2 incubator. Luciferase activity was assayed using the Steady-Glo Luciferase Assay Kit from Promega. […] Steady-Glo Luciferase Assay Kit was purchased from Promega Part# E254B.

Question: Which EC50 does the source give for `COCO[C@@H](COc1ccc(C(F)(F)F)cc1)CSc1ccc(OCC(=O)O)c(C)c1` [Compound 23, (S)-{4-[2-Methoxymethoxy-3-(4-trifluoromethyl-phenoxy)-propylsulfanyl]-2-methyl-phenoxy}-acetic acid] here?
Answer: 70 nM

Question: With `CCC(COc1ccc(C(F)(F)F)cc1)CSc1ccc(OCC(=O)O)c(C)c1` (stereo not shown) [Compound 3, {2-Methyl-4-[2-(4-trifluoromethyl-phenoxymethyl)-butylsulfanyl]-phenoxy}-acetic acid] as the compound, how does the EC50 read?
Answer: 0.08 nM and 0.04 nM

Question: How did the EC50 turn out when `CCC(COc1ccc(C(F)(F)F)cc1)CSc1ccc(CC(=O)O)cc1Cl` (stereo not shown) [Compound 9, {3-Chloro-4-[2-(4-trifluoromethyl-phenoxymethyl)-butylsulfanyl]-phenyl}-acetic acid] was run?
Answer: 16.6 nM and 18.5 nM

Question: With `Cc1cc(SCC(CCC#N)COc2ccc(C(F)(F)F)cc2)ccc1OCC(=O)O` (stereo not shown) [Compound 11, {4-[4-Cyano-2-(4-trifluoromethyl-phenoxymethyl)-butylsulfanyl]-2-methyl-phenoxy}-acetic acid] as the compound, how does the EC50 read?
Answer: 5.7 nM

Question: `CCOC(COc1ccc(C(F)(F)F)cc1)CSc1ccc(OCC(=O)O)c(C)c1` (stereo not shown) [Compound 17, {4-[2-Ethoxy-3-(4-trifluoromethyl-phenoxy)-propylsulfanyl]-2-methyl-phenoxy}-acetic acid] was tested. Which EC50 did it give?
Answer: 4.2 nM and 3.2 nM and 1.5 nM and 4.5 nM and 0.69 nM and 2.7 nM

Question: How did the EC50 turn out when `CCOC(COc1ccc(C(F)(F)F)cc1)CSc1ccc(CC(=O)O)cc1Cl` (stereo not shown) [Compound 32, {3-Chloro-4-[2-ethoxy-3-(4-trifluoromethyl-phenoxy)-propylsulfanyl]-phenyl}-acetic acid] was run?
Answer: 11.2 nM

Question: Which EC50 does the source give for `CCOCCC(COc1ccc(C(F)(F)F)cc1)CSc1ccc(OCC(=O)O)c(C)c1` (stereo not shown) [Compound 37, {4-[4-Ethoxy-2-(4-trifluoromethyl-phenoxymethyl)-butylsulfanyl]-2-methyl-phenoxy}-acetic acid] here?
Answer: 1.9 nM and 2.9 nM

Question: `CSCOC(CCc1ccc(C(F)(F)F)cc1)CSc1ccc(OCC(=O)O)c(C)c1` (stereo not shown) [Compound 39, {2-Methyl-4-[2-methylsulfanylmethoxy-4-(4-trifluoromethyl-phenyl)-butylsulfanyl]-phenoxy}-acetic Acid] was tested. Which EC50 did it give?
Answer: 12.5 nM and 17.9 nM

Question: How did the EC50 turn out when `COCCC(COc1ccc(C(F)(F)F)cc1)CSc1ccc(OCC(=O)O)c(C)c1` (stereo not shown) [Compound 35, {4-[4-Methoxy-2-(4-trifluoromethyl-phenoxymethyl)-butylsulfanyl]-2-methyl-phenoxy}-acetic acid] was run?
Answer: 2.3 nM and 4.1 nM

Question: `Cc1cc(SC[C@@H](COc2ccc(C(F)(F)F)cc2)OCc2ccc(Cl)s2)ccc1OCC(=O)O` [Compound 27, {4-[2-(5-Chloro-thiophen-2-ylmethoxy)-3-(4-trifluoromethyl-phenoxy)-propylsulfanyl]-2-methyl-phenoxy}-acetic acid] was tested. Which EC50 did it give?
Answer: 11.9 nM and 18.5 nM

Question: How did the EC50 turn out when `C=CCOC(COc1ccc(C(F)(F)F)cc1)CSc1ccc(OCC(=O)O)c(C)c1` (stereo not shown) [Compound 21, {4-[2-Allyloxy-3-(4-trifluoromethyl-phenoxy)-propylsulfanyl]-2-methyl-phenoxy}-acetic acid] was run?
Answer: 3.7 nM and 4.2 nM

Question: How did the EC50 turn out when `Cc1ccc(OCC(O)CSc2ccc(OCC(=O)O)c(C)c2)cc1` (stereo not shown) [Compound 31] was run?
Answer: > 1000 nM

Question: How did the EC50 turn out when `COc1ccc(OC(COc2ccc(C(F)(F)F)cc2)CSc2ccc(OCC(=O)O)c(C)c2)cc1` (stereo not shown) [Compound 29, {4-[2-(4-Methoxy-phenoxy)-3-(4-trifluoromethyl-phenoxy)-propylsulfanyl]-2-methyl-phenoxy}-acetic acid] was run?
Answer: 62.1 nM

Question: How did the EC50 turn out when `Cc1cc(SCC(O)COc2ccc(C(F)(F)F)cc2)ccc1OCC(=O)O` (stereo not shown) [Compound 13] was run?
Answer: 79 nM

Question: With `CCOC(CC(COc1ccc(C(F)(F)F)cc1)CSc1ccc(OCC(=O)O)c(C)c1)OCC` (stereo not shown) [Compound 36, {4-[4,4-Diethoxy-2-(4-trifluoromethyl-phenoxymethyl)-butylsulfanyl]-2-methyl-phenoxy}-acetic acid] as the compound, how does the EC50 read?
Answer: 52.9 nM

Question: Which EC50 does the source give for `Cc1cc(SCC(CC#N)COc2ccc(C(F)(F)F)cc2)ccc1OCC(=O)O` (stereo not shown) [Compound 10, {4-[3-Cyano-2-(4-trifluoromethyl-phenoxymethyl)-propylsulfanyl]-2-methyl-phenoxy}-acetic acid] here?
Answer: 29 nM and 56 nM

Question: `CCCOC(COc1ccc(C(F)(F)F)cc1)CSc1ccc(OCC(=O)O)c(C)c1` (stereo not shown) [Compound 18, {2-Methyl-4-[2-propoxy-3-(4-trifluoromethyl-phenoxy)-propylsulfanyl]-phenoxy}-acetic acid] was tested. Which EC50 did it give?
Answer: 4.3 nM

Question: Which EC50 does the source give for `CCO[C@H](COc1ccc(C(F)(F)F)cc1)CSc1ccc(OCC(=O)O)c(C)c1` [Compound 15, (R)-{4-[2-Ethoxy-3-(4-trifluoromethyl-phenoxy)-propylsulfanyl]-2-methyl-phenoxy}-acetic acid] here?
Answer: 0.76 nM and 0.56 nM and 0.88 nM and 3.4 nM and 5 nM and 1.1 nM

Question: How did the EC50 turn out when `CCOCC(COc1ccc(C(F)(F)F)cc1)CSc1ccc(OCC(=O)O)c(C)c1` (stereo not shown) [Compound 33, {4-[2-Ethoxymethyl-3-(4-trifluoromethyl-phenoxy)-propylsulfanyl]-2-methyl-phenoxy}-acetic acid] was run?
Answer: 4.7 nM and 4.6 nM

Question: For `CSCOC(COc1ccc(C(F)(F)F)cc1)CSc1ccc(OCC(=O)O)c(C)c1` (stereo not shown) [Compound 25, {2-Methyl-4-[2-methylsulfanylmethoxy-3-(4-trifluoromethyl-phenoxy)-propylsulfanyl]-phenoxy}-acetic acid], which EC50 is on record?
Answer: 25.2 nM and 8.9 nM and 8.8 nM

Question: With `Cc1cc(SCC(C)COc2ccc(C(F)(F)F)cc2)ccc1OCC(=O)O` (stereo not shown) [Compound 1, {2-Methyl-4-[2-methyl-3-(4-trifluoromethyl-phenoxy)-propylsulfanyl]-phenoxy}-acetic acid] as the compound, how does the EC50 read?
Answer: 9.2 nM and 5.6 nM

Question: With `COCOC(COc1ccc(C(F)(F)F)cc1)CSc1ccc(OCC(=O)O)c(C)c1` (stereo not shown) [Compound 24, {4-[2-Methoxymethoxy-3-(4-trifluoromethyl-phenoxy)-propylsulfanyl]-2-methyl-phenoxy}-acetic acid] as the compound, how does the EC50 read?
Answer: 6.3 nM and 6.6 nM (2×) and 5.1 nM and 6.4 nM and 3.7 nM

Question: For `Cc1cc(SC[C@H](O)COc2ccc(C(F)(F)F)cc2)ccc1OCC(=O)O` [Compound 43, Acetic acid, {4-(2R)-2-hydroxy-3-(4-trifluoromethyl-phenoxy)-propylsulfanyl}-2-methyl-phenoxyy], which EC50 is on record?
Answer: 43.2 nM

Question: How did the EC50 turn out when `CCOC(/C=C/c1ccc(C(F)(F)F)cc1)CSc1ccc(OCC(=O)O)c(C)c1` (stereo not shown) [Compound 42, {4-[2-Ethoxy-4-(4-trifluoromethyl-phenyl)-but-3-enylsulfanyl]-2-methyl-phenoxy}-acetic Acid] was run?
Answer: 8 nM and 7.9 nM

Question: How did the EC50 turn out when `Cc1cc(OCC(O)COc2ccc(C(F)(F)F)cc2)ccc1OCC(=O)O` (stereo not shown) [Compound 45] was run?
Answer: 618 nM

Question: `CCCCOC(COc1ccc(C(F)(F)F)cc1)CSc1ccc(OCC(=O)O)c(C)c1` (stereo not shown) [Compound 19, {4-[2-Butoxy-3-(4-trifluoromethyl-phenoxy)-propylsulfanyl]-2-methyl-phenoxy}-acetic acid] was tested. Which EC50 did it give?
Answer: 7.5 nM and 6.5 nM

Question: How did the EC50 turn out when `Cc1cc(SCC(COc2ccc(C(F)(F)F)cc2)OCC(=O)O)ccc1OCC(=O)O` (stereo not shown) [Compound 26, {4-[2-Carboxymethoxy-3-(4-trifluoromethyl-phenoxy)-propylsulfanyl]-2-methyl-phenoxy}-acetic acid] was run?
Answer: 126 nM

Question: Which EC50 does the source give for `CCCCCC(COc1ccc(C(F)(F)F)cc1)CSc1ccc(OCC(=O)O)c(C)c1` (stereo not shown) [Compound 6, {2-Methyl-4-[2-(4-trifluoromethyl-phenoxymethyl)-heptylsulfanyl]-phenoxy}-acetic acid] here?
Answer: 3.3 nM (2×) and 3.7 nM

Question: With `CCOC(COc1ccc(C(F)(F)F)cc1)COc1ccc(OCC(=O)O)c(C)c1` (stereo not shown) [Compound 44, {-4-[2-Ethoxy-3-(4-trifluoromethyl-phenoxy)-propoxy]-2-methyl-phenoxy}-acetic acid] as the compound, how does the EC50 read?
Answer: 24.3 nM

Question: With `Cc1cc(SCC/C=C/c2ccc(C(F)(F)F)cc2)ccc1OCC(=O)O` [Compound 40, {2-Methyl-4-[4-(4-trifluoromethyl-phenyl)-but-3-enylsulfanyl]-phenoxy}-acetic acid] as the compound, how does the EC50 read?
Answer: 39.3 nM and 43.7 nM

Question: For `Cc1cc(SCC(C/C=C/C#N)COc2ccc(C(F)(F)F)cc2)ccc1OCC(=O)O` (stereo not shown) [Compound 12, {4-[5-Cyano-2-(4-trifluoromethyl-phenoxymethyl)-pent-4-enylsulfanyl]-2-methyl-phenoxy}-acetic acid], which EC50 is on record?
Answer: 19.9 nM

Question: `COC(COc1ccc(C(F)(F)F)cc1)CSc1ccc(OCC(=O)O)c(C)c1` (stereo not shown) [Compound 14, {4-[2-Methoxy-3-(4-trifluoromethyl-phenoxy)-propylsulfanyl]-2-methyl-phenoxy}-acetic acid] was tested. Which EC50 did it give?
Answer: 16.2 nM and 21.5 nM

Question: For `Cc1cc(SCC(C)Oc2ccc(C(F)(F)F)cc2)ccc1OCC(=O)O` (stereo not shown) [Compound 7, {2-Methyl-4-[2-(4-trifluoromethyl-phenoxy)-propylsulfanyl]-phenoxy}-acetic acid], which EC50 is on record?
Answer: 211 nM

Question: `CCO[C@@H](COc1ccc(C(F)(F)F)cc1)CSc1ccc(OCC(=O)O)c(C)c1` [Compound 16, (S)-{4-[2-Ethoxy-3-(4-trifluoromethyl-phenoxy)-propylsulfanyl]-2-methyl-phenoxy}-acetic acid] was tested. Which EC50 did it give?
Answer: 22.4 nM and 27.5 nM

Question: `Cc1cc(SCC(O)/C=C/c2ccc(C(F)(F)F)cc2)ccc1OCC(=O)O` (stereo not shown) [Compound 41] was tested. Which EC50 did it give?
Answer: 144 nM

Question: How did the EC50 turn out when `CCCC(=O)c1ccc(OC(COc2ccc(C(F)(F)F)cc2)CSc2ccc(OCC(=O)O)c(C)c2)cc1` (stereo not shown) [Compound 30, {4-[2-(4-Butyryl-phenoxy)-3-(4-trifluoromethyl-phenoxy)-propylsulfanyl]-2-methyl-phenoxy}-acetic acid] was run?
Answer: 23.9 nM

Same assay, conditions: Table 3 compounds of interest, tested likewise

Question: For `Cc1cc(SCCCOc2ccc(C(F)(F)F)cc2)ccc1OCC(=O)O` [{2-Methyl-4-[3-(4-trifluoromethyl-phenoxy)-propylsulfanyl]-phenoxy}-acetic acid], which EC50 is on record?
Answer: 17.6 nM
